# Results published in PubChem BioAssay AID1918942 (Molecular Pharmacology Branch, DTP, NCI, 2023).
# System: 743489-274-T-PDC complex spheroid viability
# Assay: Anticancer human tumor 743489-274-T-PDC patient-derived renal cell carcinoma cell line growth inhibition
# Conditions: for IC50: curve of first compound; for viability, T/C: stronger effect = lower value
# Summary of the method: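 Complex spheroids of tumor cells with HUVEC and human MSCs, exposed to iadademstat combined with other agents. Each agent tested in half-log steps from near clinical Cmax (else 10 microM top), DMSO ≤0.25%.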
# 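Also: spheroids exposed to compounds for 7 days before readout.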
# 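For viability, T/C in this document: 100% = DMSO vehicle control wells.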
structure (smiles),measurement,setting,value
CC[C@@]1(O)C(=O)OCc2c1cc1n(c2=O)Cc2cc3c(CN(C)C)c(O)ccc3nc2-1 + NC1CCC(NC2CC2c2ccccc2)CC1,IC50,second compound 0.1 µM,> 100 nM
same,IC50,second compound 0.316 µM,> 100 nM
same,IC50,second compound 1 µM,> 100 nM
same,IC50,second compound 3.16 µM,> 100 nM
same,IC50,second compound 10 µM,> 100 nM
same,"viability, T/C","second compound 0.1 µM, first compound 0.000316 µM",119%
same,"viability, T/C","second compound 0.1 µM, first compound 0.001 µM",103%
same,"viability, T/C","second compound 0.1 µM, first compound 0.00316 µM",116%
same,"viability, T/C","second compound 0.1 µM, first compound 0.01 µM",89.5%
same,"viability, T/C","second compound 0.1 µM, first compound 0.0316 µM",75.6%
same,"viability, T/C","second compound 0.1 µM, first compound 0.1 µM",89.9%
same,"viability, T/C","second compound 0.316 µM, first compound 0.000316 µM",107%
same,"viability, T/C","second compound 0.316 µM, first compound 0.001 µM",122%
same,"viability, T/C","second compound 0.316 µM, first compound 0.00316 µM",114%
same,"viability, T/C","second compound 0.316 µM, first compound 0.01 µM",93.3%
same,"viability, T/C","second compound 0.316 µM, first compound 0.0316 µM",96.5%
same,"viability, T/C","second compound 0.316 µM, first compound 0.1 µM",81.1%
same,"viability, T/C","second compound 1 µM, first compound 0.000316 µM",120%
same,"viability, T/C","second compound 1 µM, first compound 0.001 µM",122%
same,"viability, T/C","second compound 1 µM, first compound 0.00316 µM",90.3%
same,"viability, T/C","second compound 1 µM, first compound 0.01 µM",95.5%
same,"viability, T/C","second compound 1 µM, first compound 0.0316 µM",77.8%
same,"viability, T/C","second compound 1 µM, first compound 0.1 µM",81.8%
same,"viability, T/C","second compound 3.16 µM, first compound 0.000316 µM",120%
same,"viability, T/C","second compound 3.16 µM, first compound 0.001 µM",110%
same,"viability, T/C","second compound 3.16 µM, first compound 0.00316 µM",115%
same,"viability, T/C","second compound 3.16 µM, first compound 0.01 µM",78.2%
same,"viability, T/C","second compound 3.16 µM, first compound 0.0316 µM",87.3%
same,"viability, T/C","second compound 3.16 µM, first compound 0.1 µM",71.2%
same,"viability, T/C","second compound 10 µM, first compound 0.000316 µM",120%
same,"viability, T/C","second compound 10 µM, first compound 0.001 µM",127%
same,"viability, T/C","second compound 10 µM, first compound 0.00316 µM",101%
same,"viability, T/C","second compound 10 µM, first compound 0.01 µM",104%
same,"viability, T/C","second compound 10 µM, first compound 0.0316 µM",85.1%
same,"viability, T/C","second compound 10 µM, first compound 0.1 µM",78.9%
CCc1c2c(nc3ccc(O)cc13)-c1cc3c(c(=O)n1C2)COC(=O)[C@]3(O)CC + NC1CCC(NC2CC2c2ccccc2)CC1,IC50,second compound 0.1 µM,65.9 nM
same,IC50,second compound 0.316 µM,28.6 nM
same,IC50,second compound 1 µM,47.8 nM
same,IC50,second compound 3.16 µM,22.1 nM
same,IC50,second compound 10 µM,215 nM
same,"viability, T/C","second compound 0.1 µM, first compound 0.000949 µM",86.3%
same,"viability, T/C","second compound 0.1 µM, first compound 0.003 µM",68.7%
same,"viability, T/C","second compound 0.1 µM, first compound 0.00949 µM",62.7%
same,"viability, T/C","second compound 0.1 µM, first compound 0.03 µM",43.7%
same,"viability, T/C","second compound 0.1 µM, first compound 0.0949 µM",54.4%
same,"viability, T/C","second compound 0.1 µM, first compound 0.3 µM",47.8%
same,"viability, T/C","second compound 0.316 µM, first compound 0.000949 µM",96.8%
same,"viability, T/C","second compound 0.316 µM, first compound 0.003 µM",72.7%
same,"viability, T/C","second compound 0.316 µM, first compound 0.00949 µM",54.2%
same,"viability, T/C","second compound 0.316 µM, first compound 0.03 µM",46.7%
same,"viability, T/C","second compound 0.316 µM, first compound 0.0949 µM",49.9%
same,"viability, T/C","second compound 0.316 µM, first compound 0.3 µM",51.4%
same,"viability, T/C","second compound 1 µM, first compound 0.000949 µM",94.5%
same,"viability, T/C","second compound 1 µM, first compound 0.003 µM",70.6%
same,"viability, T/C","second compound 1 µM, first compound 0.00949 µM",70%
same,"viability, T/C","second compound 1 µM, first compound 0.03 µM",50.4%
same,"viability, T/C","second compound 1 µM, first compound 0.0949 µM",42.1%
same,"viability, T/C","second compound 1 µM, first compound 0.3 µM",44%
same,"viability, T/C","second compound 3.16 µM, first compound 0.000949 µM",95.2%
same,"viability, T/C","second compound 3.16 µM, first compound 0.003 µM",92.8%
same,"viability, T/C","second compound 3.16 µM, first compound 0.00949 µM",62.1%
same,"viability, T/C","second compound 3.16 µM, first compound 0.03 µM",48.2%
same,"viability, T/C","second compound 3.16 µM, first compound 0.0949 µM",41.3%
same,"viability, T/C","second compound 3.16 µM, first compound 0.3 µM",44%
same,"viability, T/C","second compound 10 µM, first compound 0.000949 µM",89.8%
same,"viability, T/C","second compound 10 µM, first compound 0.003 µM",79.1%
same,"viability, T/C","second compound 10 µM, first compound 0.00949 µM",64.5%
same,"viability, T/C","second compound 10 µM, first compound 0.03 µM",69.4%
same,"viability, T/C","second compound 10 µM, first compound 0.0949 µM",51.3%
same,"viability, T/C","second compound 10 µM, first compound 0.3 µM",48.5%
